Experimental data from patent publication US7109193B2, “Tricyclic diazepines tocolytic oxytocin receptor antagonists” (Wyeth, priority 2001, dated 2006).

molecular target: T1, human vasopressin V2 receptor subtype (Homo sapiens, UniProt P30518); assay: Vasopressin binding in Chinese Hamster Ovary cell membranes expressing human vasopressin V2 subtype receptors; settings: 100 nM, CHO cell membranes, [3H]arginine vasopressin, values without parentheses
T1 construct: host or cells: CHO cells (pZeoSV vector)
Method in brief: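 Radioligand displacement on membranes from CHO cells stably expressing human V2 receptor, 25 to 50 μg protein/well, in 50 mM Tris-HCl pH 7.4 with MgCl2, BSA and protease inhibitors. [^3H]arginine vasopressin (8 nM working solution) incubated 60 min at room temperature; bound label measured by filtration and scintillation counting.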

T1 sequence (P30518 whole entry): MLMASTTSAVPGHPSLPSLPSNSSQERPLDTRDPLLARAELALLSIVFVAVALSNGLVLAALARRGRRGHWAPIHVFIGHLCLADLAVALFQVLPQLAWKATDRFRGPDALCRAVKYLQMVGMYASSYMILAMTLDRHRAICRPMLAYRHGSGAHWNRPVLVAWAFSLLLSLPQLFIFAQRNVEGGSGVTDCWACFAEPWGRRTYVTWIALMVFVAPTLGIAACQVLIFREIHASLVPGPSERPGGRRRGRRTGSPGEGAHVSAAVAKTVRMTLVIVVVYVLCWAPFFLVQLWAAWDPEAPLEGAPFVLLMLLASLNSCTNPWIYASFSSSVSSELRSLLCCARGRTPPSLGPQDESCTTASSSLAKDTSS

Structure (SMILES) | inhibition at 0.1 µM
COc1cc(-c2ccccc2C)c(Cl)cc1C(=O)N1Cc2ccc(C(=O)NCCCN(C)C)n2Cc2ccccc21 [Example 78, 10-[(6-Chloro-3-methoxy-2′-methyl[1,1′-biphenyl]-4-yl)carbonyl]-N-[3-(dimethylamino)propyl]-10,11-dihydro-5H-pyrrolo[2,1-c][1,4]benzodiazepine-3-carboxamide] | 14%
CC(C)N1CCN(C(=O)c2ccc3n2Cc2ccccc2N(C(=O)c2ccc(-c4cccc5ccccc45)cc2Cl)C3)CC1 [Example 243, {10-[2-Chloro-4-(1-naphthyl)benzoyl]-10,11-dihydro-5H-pyrrolo[2,1-c][1,4]benzodiazepin-3-yl}(4-isopropyl-1-piperazinyl)methanone] | 21%
Cc1ccccc1-c1ccc(C(=O)N2Cc3ccc(C(=O)N4CCN(CCCN(C)C)CC4)n3Cc3ccccc32)cc1C [Example 247, {4-[3-(Dimethylamino)propyl]-1-piperazinyl}{10-[(2,2′-dimethyl[1,1′-biphenyl]-4-yl)carbonyl]-10,11-dihydro-5H-pyrrolo[2,1-c][1,4]benzodiazepin-3-yl}methanone] | 21%
COc1cccc(-c2ccc(C(=O)N3Cc4ccc(C(=O)N5CCN(CCCN(C)C)CC5)n4Cc4ccccc43)cc2C)c1 [Example 248, {4-[3-(Dimethylamino)propyl]-1-piperazinyl}{10-[(3′-methoxy-2-methyl[1,1′-biphenyl]-4-yl)carbonyl]-10,11-dihydro-5H-pyrrolo[2,1-c][1,4]benzodiazepin-3-yl}methanone] | 7%
Cc1ccccc1-c1ccc(C(=O)N2Cc3ccc(C(=O)N4CCN(CCCN(C)C)CC4)n3Cc3ccccc32)cc1 [Example 249, {4-[3-(Dimethylamino)propyl]-1-piperazinyl}{10-[(2′-methyl[1,1′-biphenyl]-4-yl)carbonyl]-10,11-dihydro-5H-pyrrolo[2,1-c][1,4]benzodiazepin-3-yl}methanone] | 9%
COc1cc(C(=O)N2Cc3ccc(C(=O)N4CCN(CCCN(C)C)CC4)n3Cc3ccccc32)ccc1-c1ccccc1C [Example 250, {4-[3-(Dimethylamino)propyl]-1-piperazinyl}{10-[(2-methoxy-2′-methyl[1,1′-biphenyl]-4-yl)carbonyl]-10,11-dihydro-5H-pyrrolo[2,1-c][1,4]benzodiazepin-3-yl}methanone] | -10%
COc1cc(-c2ccccc2C)c(Cl)cc1C(=O)N1Cc2ccc(C(=O)N3CCN(CCCN(C)C)CC3)n2Cc2ccccc21 [Example 251, {10-[(6-Chloro-3-methoxy-2′-methyl[1,1′-biphenyl]-4-yl)carbonyl]-10,11-dihydro-5H-pyrrolo[2,1-c][1,4]benzodiazepin-3-yl}{4-[3-(dimethylamino)propyl]-1-piperazinyl}methanone] | 24%
COc1cccc(-c2cc(OC)c(C(=O)N3Cc4ccc(C(=O)N5CCN(CCCN(C)C)CC5)n4Cc4ccccc43)cc2Cl)c1 [Example 252, {10-[(6-Chloro-3,3′-dimethoxy[1,1′-biphenyl]-4-yl)carbonyl]-10,11-dihydro-5H-pyrrolo[2,1-c][1,4]benzodiazepin-3-yl}{4-[3-(dimethylamino)propyl]-1-piperazinyl}methanone] | 21%
COc1cc(C(=O)N2Cc3ccc(C(=O)N4CCN(CCCN(C)C)CC4)n3Cc3ccccc32)ccc1-c1cccc2ccccc12 [Example 253, {4-[3-(Dimethylamino)propyl]-1-piperazinyl}{10-[3-methoxy-4-(1-naphthyl)benzoyl]-10,11-dihydro-5H-pyrrolo[2,1-c][1,4]benzodiazepin-3-yl}methanone] | -10%
COc1ccccc1-c1ccc(C(=O)N2Cc3ccc(C(=O)N4CCN(CCCN(C)C)CC4)n3Cc3ccccc32)cc1OC [Example 254, {10-[(2,2′-Dimethoxy[1,1′-biphenyl]-4-yl)carbonyl]-10,11-dihydro-5H-pyrrolo[2,1-c][1,4]benzodiazepin-3-yl}{4-[3-(dimethylamino)propyl]-1-piperazinyl}methanone] | -4%
COc1cccc(-c2ccc(C(=O)N3Cc4ccc(C(=O)N5CCN(CCCN(C)C)CC5)n4Cc4ccccc43)cc2OC)c1 [Example 255, {10-[(2,3′-Dimethoxy[1,1′-biphenyl]-4-yl)carbonyl]-10,11-dihydro-5H-pyrrolo[2,1-c][1,4]benzodiazepin-3-yl}{4-[3-(dimethylamino)propyl]-1-piperazinyl}methanone] | 27%
CN(C)CCCN1CCN(C(=O)c2ccc3n2Cc2ccccc2N(C(=O)c2ccc(-c4cccc5ccccc45)cc2Cl)C3)CC1 [Example 256, {10-[2-Chloro-4-(1-naphthyl)benzoyl]-10,11-dihydro-5H-pyrrolo[2,1-c][1,4]benzodiazepin-3-yl}{4-[3-(dimethylamino)propyl]-1-piperazinyl}methanone] | 40%
Cc1cc(C(=O)N2Cc3ccc(C(=O)N[C@@H](Cc4c[nH]cn4)C(N)=O)n3Cc3ccccc32)ccc1-c1ccccc1C(F)(F)F [Example 284, N-[(1S)-2-Amino-1-(1H-imidazol-4-ylmethyl)-2-oxoethyl]-10-{[2-methyl-2′-(trifluoromethyl)[1,1′-biphenyl]-4-yl]carbonyl}-10,11-dihydro-5H-pyrrolo[2,1-c][1,4]benzodiazepine-3-carboxamide] | 12%
COc1ccccc1-c1ccc(C(=O)N2Cc3ccc(C(=O)N[C@@H](Cc4c[nH]cn4)C(N)=O)n3Cc3ccccc32)cc1 [Example 285, N-[(1S)-2-Amino-1-(1H-imidazol-4-ylmethyl)-2-oxoethyl]-10-[(2′-methoxy[1,1′-biphenyl]-4-yl)carbonyl]-10,11-dihydro-5H-pyrrolo[2,1-c][1,4]benzodiazepine-3-carboxamide] | 32%
COc1ccccc1-c1ccc(C(=O)N2Cc3ccc(C(=O)N[C@@H](Cc4c[nH]cn4)C(N)=O)n3Cc3ccccc32)cc1OC [Example 286, N-[(1S)-2-Amino-1-(1H-imidazol-4-ylmethyl)-2-oxoethyl]-10-[(2,2′-dimethoxy[1,1′-biphenyl]-4-yl)carbonyl]-10,11-dihydro-5H-pyrrolo[2,1-c][1,4]benzodiazepine-3-carboxamide] | 27%
COc1cccc(-c2cc(OC)c(C(=O)N3Cc4ccc(C(=O)N[C@@H](Cc5c[nH]cn5)C(N)=O)n4Cc4ccccc43)cc2Cl)c1 [Example 287, N-[(1S)-2-Amino-1-(1H-imidazol-4-ylmethyl)-2-oxoethyl]-10-[(6-chloro-3,3′-dimethoxy[1,1′-biphenyl]-4-yl)carbonyl]-10,11-dihydro-5H-pyrrolo[2,1-c][1,4]benzodiazepine-3-carboxamide] | 26%
COc1ccccc1-c1ccc(C(=O)N2Cc3ccc(C(=O)N[C@@H](Cc4c[nH]cn4)C(N)=O)n3Cc3ccccc32)cc1C [Example 288, N-[(1S)-2-Amino-1-(1H-imidazol-4-ylmethyl)-2-oxoethyl]-10-[(2′-methoxy-2-methyl[1,1′-biphenyl]4-yl)carbonyl]-10,11-dihydro-5H-pyrrolo[2,1-c][1,4]benzodiazepine-3-carboxamide] | 32%
COc1cccc(-c2ccc(C(=O)N3Cc4ccc(C(=O)n5ccnc5)n4Cc4ccccc43)cc2C)c1 [Example 289, 1H-Imidazol-1-yl-{10-[(3′-methoxy-2-methyl[1,1′-biphenyl]-4-yl)carbonyl]-10,11-dihydro-5H-pyrrolo[2,1-c][1,4]benzodiazepin-3-yl}methanone] | 7%
COc1cc(C(=O)N2Cc3ccc(C(=O)n4ccnc4)n3Cc3ccccc32)ccc1-c1ccccc1C [Example 290, 1H-Imidazol-1-yl-{10-[(2-methoxy-2′-methyl[1,1′-biphenyl]-4-yl)carbonyl]-10,11-dihydro-5H-pyrrolo[2,1-c][1,4]benzodiazepin-3-yl}methanone] | -6%
COc1cc(C(=O)N2Cc3ccc(C(=O)n4ccnc4)n3Cc3ccccc32)ccc1-c1cccc2ccccc12 [Example 291, 1H-Imidazol-1-yl-{10-[3-methoxy-4-(1-naphthyl)benzoyl]-10,11-dihydro-5H-pyrrolo[2,1-c][1,4]benzodiazepin-3-yl}methanone] | 5%
COc1ccccc1-c1ccc(C(=O)N2Cc3ccc(C(=O)n4ccnc4)n3Cc3ccccc32)cc1C [Example 292, 1H-Imidazol-1-yl-{10-[(2′-methoxy-2-methyl[1,1′-biphenyl]-4-yl)carbonyl]-10,11-dihydro-5H-pyrrolo[2,1-c][1,4]benzodiazepin-3-yl}methanone] | -7%
COc1ccccc1-c1ccc(C(=O)N2Cc3ccc(C(=O)n4ccnc4)n3Cc3ccccc32)cc1OC [Example 293, {10-[(2,2′-Dimethoxy[1,1′-biphenyl]-4-yl)carbonyl]-10,11-dihydro-5H-pyrrolo[2,1-c][1,4]benzodiazepin-3-yl}(1H-imidazol-1-yl)methanone] | 3%
Cc1cc(C(=O)N2Cc3ccc(C(=O)n4ccnc4)n3Cc3ccccc32)ccc1-c1ccccc1C(F)(F)F [Example 294, 1H-Imidazol-1-yl(10-{[2-methyl-2′-(trifluoromethyl)[1,1′-biphenyl]-4-yl]carbonyl}-10,11-dihydro-5H-pyrrolo[2,1-c][1,4]benzodiazepin-3-yl)methanone] | -2%

same assay, conditions: 100 nM, CHO cell membranes, [3H]arginine vasopressin, values without parentheses, 0.1 µM

Structure (SMILES) | V2 % inhibition @ 100 nM
Cc1cc(C(=O)N2Cc3ccc(C(=O)N4CCN(CCCN(C)C)CC4)n3Cc3ccccc32)ccc1-c1ccccc1C(F)(F)F [Example 257, {10-[(2-Methyl-2′-trifluoromethyl-[1,1′-biphenyl]-4-yl)carbonyl]-10,11-dihydro-5H-pyrrolo[2,1-c][1,4]benzodiazepin-3-yl}{4-[3-(dimethylamino)propyl]-1-piperazinyl}-methanone] | 16%
